Literature values in paper PMC6105164 (Cancer Chemotherapy and Pharmacology, 2018).

Legend:
[1] = system: patients with KRAS mutations; design: method as in PMID 24024839, PMID 18316791, PMID 23182985; conditions: cited from earlier work
[2] = system: prenylation of RAS; design: method as in PMID 22020205, PMID 15084616, PMID 15459217; conditions: cited from earlier work

Compound	efficacy [1]	activity in clinical trials [2]
panitumumab: EGF receptor inhibitor	a little efficacy	
Cn1cncc1[C@@](N)(c1ccc(Cl)cc1)c1ccc2c(c1)c(-c1cccc(Cl)c1)cc(=O)n2C [tipifarnib]		a little activity
